From patent US20230113037A1 (Bayer Aktiengesellschaft, priority 2019, published 2023)
Where two headings read alike, the source gives them in different places.

How the values were obtained:
AHR [1] = biological target: T1, AHR (Homo sapiens, UniProt P35869); experiment: In vitro assay 1: antagonism in human cell line (AHR transactivation, firefly luciferase reporter, kynurenic acid prestimulated); type: cell-based; conditions: AHR Antagonism Human IC50 [M]
T1 construct: U87 MG glioblastoma cells (ATCC #HTB-14) endogenously expressing AHR; endogenous in cells; host or cells: U87 MG glioblastoma cells (ATCC #HTB-14)
T1 sequence (P35869 11-848): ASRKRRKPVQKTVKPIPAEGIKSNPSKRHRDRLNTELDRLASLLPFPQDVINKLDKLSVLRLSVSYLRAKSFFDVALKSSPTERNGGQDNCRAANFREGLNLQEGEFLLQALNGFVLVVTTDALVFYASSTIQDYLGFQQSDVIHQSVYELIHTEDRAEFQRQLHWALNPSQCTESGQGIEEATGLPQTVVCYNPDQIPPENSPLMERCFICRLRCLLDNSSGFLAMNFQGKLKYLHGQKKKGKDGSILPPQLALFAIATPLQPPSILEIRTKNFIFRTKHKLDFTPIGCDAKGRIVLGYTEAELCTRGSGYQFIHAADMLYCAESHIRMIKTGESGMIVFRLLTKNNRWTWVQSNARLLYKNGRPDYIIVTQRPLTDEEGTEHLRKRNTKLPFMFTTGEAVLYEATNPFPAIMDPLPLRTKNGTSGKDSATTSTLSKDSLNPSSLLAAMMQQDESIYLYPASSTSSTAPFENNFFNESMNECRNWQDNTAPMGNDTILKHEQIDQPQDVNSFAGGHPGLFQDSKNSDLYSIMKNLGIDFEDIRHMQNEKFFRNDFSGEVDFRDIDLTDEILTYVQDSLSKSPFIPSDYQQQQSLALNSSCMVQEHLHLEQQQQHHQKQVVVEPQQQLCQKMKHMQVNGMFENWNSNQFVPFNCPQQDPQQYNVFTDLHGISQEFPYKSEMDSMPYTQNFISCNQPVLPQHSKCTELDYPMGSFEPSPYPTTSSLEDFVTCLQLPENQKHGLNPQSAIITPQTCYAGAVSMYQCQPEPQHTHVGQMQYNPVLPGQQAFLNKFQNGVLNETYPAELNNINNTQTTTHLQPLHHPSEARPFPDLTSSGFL
Procedure, shortened: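 Antagonism is measured against kynurenic acid prestimulation in U87 MG glioblastoma cells carrying stable DRE-luciferase and Renilla reporters. Positive inhibition control: 150 μM kynurenic acid with 5 μM staurosporine. Values are normalized to controls; repeats are averaged or given as medians.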

AHR [2] = biological target: T2, AHR (Mus musculus, UniProt P30561); experiment: In vitro assay 3: antagonism in mouse cell line (AHR transactivation, firefly luciferase reporter, kynurenic acid prestimulated); type: cell-based
T2 sequence (P30561 1-848 P471L/N533S/M589L): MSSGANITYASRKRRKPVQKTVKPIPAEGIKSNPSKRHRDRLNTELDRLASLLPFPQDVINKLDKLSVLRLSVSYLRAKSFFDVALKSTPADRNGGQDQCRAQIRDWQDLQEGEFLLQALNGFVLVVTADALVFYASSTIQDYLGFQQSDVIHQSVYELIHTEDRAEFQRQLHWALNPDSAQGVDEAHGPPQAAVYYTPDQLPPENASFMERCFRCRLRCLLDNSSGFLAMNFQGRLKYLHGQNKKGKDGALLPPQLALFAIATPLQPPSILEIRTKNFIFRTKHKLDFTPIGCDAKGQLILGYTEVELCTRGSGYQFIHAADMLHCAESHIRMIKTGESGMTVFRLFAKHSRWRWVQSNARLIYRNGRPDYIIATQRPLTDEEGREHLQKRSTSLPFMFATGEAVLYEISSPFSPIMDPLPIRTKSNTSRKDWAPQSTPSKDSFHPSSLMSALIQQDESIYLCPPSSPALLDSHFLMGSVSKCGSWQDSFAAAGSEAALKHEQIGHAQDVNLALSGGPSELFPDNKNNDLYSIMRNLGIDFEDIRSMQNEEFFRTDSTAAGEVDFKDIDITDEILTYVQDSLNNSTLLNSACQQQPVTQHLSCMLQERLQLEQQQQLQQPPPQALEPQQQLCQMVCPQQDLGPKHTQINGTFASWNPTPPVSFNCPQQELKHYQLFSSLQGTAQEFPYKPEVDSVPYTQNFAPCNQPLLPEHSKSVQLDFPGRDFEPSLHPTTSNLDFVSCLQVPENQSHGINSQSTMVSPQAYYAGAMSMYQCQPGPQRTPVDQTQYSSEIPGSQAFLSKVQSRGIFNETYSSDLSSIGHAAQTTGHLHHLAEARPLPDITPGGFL
Procedure, shortened: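 Antagonism read as reduced firefly luciferase signal (SteadyGlo) from a stably transfected AHR/DRE reporter in a mouse line prestimulated with kynurenic acid. Data normalized to controls, the full-inhibition control being cells without kynurenic acid; multiple determinations given as average or median values.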

[3] = mouse Hepa 1c1c7 cells, 200 μM kynurenic acid, 20 hours, read-out: AHR Antagonism Mouse IC50
[4] = read-out: AHR Antagonism Mouse IC50, mouse Hepa 1c1c7 cells, 200 μM kynurenic acid, 20 hours

Compound	IC50 (AHR [1]) [M]	IC50 (AHR [2]; [3]) [µM]	IC50 (AHR [2]; [4]) [µM]
N#Cc1cccc2c1nc(N[C@@H]1CCCCNC1=O)n1nc(-c3cnn(C4CC4)c3)nc21 [Example 761, 2-(1-cyclopropyl-1H-pyrazol-4-yl)-5-{[(3R)-2-oxoazepan-3-yl]amino}[1,2,4]triazolo[1,5-c]quinazoline-7-carbonitrile]	3.11e-09	0.00993	–
N#Cc1cccc2c1nc(N[C@@H]1CCCCNC1=O)n1nc(-c3cnn(C4CCC4)c3)nc21 [Example 762, 2-(1-cyclobutyl-1H-pyrazol-4-yl)-5-{[(3R)-2-oxoazepan-3-yl]amino}[1,2,4]triazolo[1,5-c]quinazoline-7-carbonitrile]	2.44e-09	–	0.00701
N#Cc1cccc2c1nc(N[C@@H]1CCCCNC1=O)n1nc(-c3cn[nH]c3)nc21 [Example 765, 5-{[(3R)-2-oxoazepan-3-yl]amino}-2-(1H-pyrazol-4-yl)[1,2,4]triazolo[1,5-c]quinazoline-7-carbonitrile]	7.79e-07	–	5.85
CC(C)Sc1cccc2c1nc(N[C@@H]1CCCCNC1=O)n1nc(-c3cnn(C)c3)nc21 [Example 768]	1.32e-07	–	1.22
C[C@@H](Nc1nc2ccccc2c2nc(-c3ccc(S(C)(=O)=O)cc3)nn12)C(=O)NCCN(C)C [Example 774, N-[2-(dimethylamino)ethyl]-N^2-{2-[4-(methanesulfonyl)phenyl][1,2,4]triazolo[1,5-c]quinazolin-5-yl}-D-alaninamide]	2.26e-06	0.555	–
C[C@@H](Nc1nc2ccccc2c2nc(-c3cc(Cl)ccc3OC(F)(F)F)nn12)C(=O)NCCN(C)C [Example 775, N^2-{2-[5-chloro-2-(trifluoromethoxy)phenyl][1,2,4]triazolo[1,5-c]quinazolin-5-yl}-N-[2-(dimethylamino)ethyl]-D-alaninamide]	3.13e-06	0.743	–
C[C@@H](Nc1nc2ccccc2c2nc(-c3cnn(C)c3)nn12)C(=O)NCCN(C)C [Example 776, N-[2-(dimethylamino)ethyl]-N^2-[2-(1-methyl-1H-pyrazol-4-yl)[1,2,4]triazolo[1,5-c]quinazolin-5-yl]-D-alaninamide]	2.92e-06	1.02	–
COc1ccc(-c2nc3c4ccccc4nc(N[C@H](C)C(=O)N4CCN(C)CC4)n3n2)cc1 [Example 777, (2R)-2-{[2-(4-methoxyphenyl)[1,2,4]triazolo[1,5-c]quinazolin-5-yl]amino}-1-(4-methylpiperazin-1-yl)propan-1-one]	1.8e-09	0.00221	–
COc1ccc(-c2nc3c4ccccc4nc(N[C@H](C)C(=O)N4CCOCC4)n3n2)cc1 [Example 778, (2R)-2-{[2-(4-methoxyphenyl)[1,2,4]triazolo[1,5-c]quinazolin-5-yl]amino}-1-(morpholin-4-yl)propan-1-one]	2.09e-09	0.00432	–

Second part, led by results:

IC50 (AHR [1]) [M]	IC50 (AHR [2]; [3]) [µM]	Compound	IC50 (AHR [2]; [4]) [µM]
1.35e-08	0.0196	COc1cccc2c1nc(N[C@@H]1CCCCNC1=O)n1nc(-c3cnn(C4CCC4)c3)nc21 [Example 758, (3R)-3-{[2-(1-cyclobutyl-1H-pyrazol-4-yl)-7-methoxy[1,2,4]triazolo[1,5-c]quinazolin-5-yl]amino}azepan-2-one]	–
7.68e-09	0.025	CC(C)n1cc(-c2nc3c4cccc(OC(F)(F)F)c4nc(N[C@@H]4CCCCNC4=O)n3n2)cn1 [Example 759, (3R)-3-({2-[1-(propan-2-yl)-1H-pyrazol-4-yl]-7-(trifluoromethoxy)[1,2,4]triazolo[1,5-c]quinazolin-5-yl}amino)azepan-2-one]	–
3.6e-09	0.01	CC(C)n1cc(-c2nc3c4cccc(C#N)c4nc(N[C@@H]4CCCCNC4=O)n3n2)cn1 [Example 760, 5-{[(3R)-2-oxoazepan-3-yl]amino}-2-[1-(propan-2-yl)-1H-pyrazol-4-yl][1,2,4]triazolo[1,5-c]quinazoline-7-carbonitrile]	–
1.41e-09	0.00396	CCn1cc(-c2nc3c4cccc(C#N)c4nc(N[C@@H]4CCCCNC4=O)n3n2)c(C)n1 [Example 763, 2-(1-ethyl-3-methyl-1H-pyrazol-4-yl)-5-{[(3R)-2-oxoazepan-3-yl]amino}[1,2,4]triazolo[1,5-c]quinazoline-7-carbonitrile]	–
1.86e-09	0.00173	N#Cc1cccc2c1nc(N[C@@H]1CCCCNC1=O)n1nc(-c3cnn(C(F)F)c3)nc21 [Example 764, 2-[1-(difluoromethyl)-1H-pyrazol-4-yl]-5-{[(3R)-2-oxoazepan-3-yl]amino}[1,2,4]triazolo[1,5-c]quinazoline-7-carbonitrile]	–
1.64e-08	0.047	COc1ccc(-c2nc3c4cccc(SC)c4nc(N[C@@H]4CCCCNC4=O)n3n2)cc1 [Example 766, (3R)-3-{[2-(4-methoxyphenyl)-7-(methylsulfanyl)[1,2,4]triazolo[1,5-c]quinazolin-5-yl]amino}azepan-2-one]	–
2.69e-08	0.0476	COc1ccc(-c2nc3c4cccc(SC(C)C)c4nc(N[C@@H]4CCCCNC4=O)n3n2)cc1 [Example 767, (3R)-3-({2-(4-methoxyphenyl)-7-[(propan-2-yl)sulfanyl][1,2,4]triazolo[1,5-c]quinazolin-5-yl}amino)azepan-2-one]	–
2.1e-08	0.151	CCSc1cccc2c1nc(N[C@@H]1CCCCNC1=O)n1nc(-c3cnn(C)c3)nc21 [Example 769, (3R)-3-{[7-(ethylsulfanyl)-2-(1-methyl-1H-pyrazol-4-yl)[1,2,4]triazolo[1,5-c]quinazolin-5-yl]amino}azepan-2-one]	–
4.04e-09	0.00509	CCSc1cccc2c1nc(N[C@@H]1CCCCNC1=O)n1nc(-c3ccc(OC)cc3)nc21 [Example 770, (3R)-3-{[7-(ethylsulfanyl)-2-(4-methoxyphenyl)[1,2,4]triazolo[1,5-c]quinazolin-5-yl]amino}azepan-2-one]	–
1.02e-08	0.104	CSc1cccc2c1nc(N[C@@H]1CCCCNC1=O)n1nc(-c3cnn(C(C)C)c3)nc21 [Example 771, (3R)-3-({7-(methylsulfanyl)-2-[1-(propan-2-yl)-1H-pyrazol-4-yl][1,2,4]triazolo[1,5-c]quinazolin-5-yl}amino)azepan-2-one]	–
3.61e-09	0.0513	CCn1cc(-c2nc3c4cccc(SC)c4nc(N[C@@H]4CCCCNC4=O)n3n2)c(C)n1 [Example 772, (3R)-3-{[2-(1-ethyl-3-methyl-1H-pyrazol-4-yl)-7-(methylsulfanyl)[1,2,4]triazolo[1,5-c]quinazolin-5-yl]amino}azepan-2-one]	–
8.57e-10	0.000995	COc1ccc(-c2nc3c4cccc(Br)c4nc(N[C@H](C)C(=O)N4CCOCC4)n3n2)cc1 [Example 773, (2R)-2-{[7-bromo-2-(4-methoxyphenyl)[1,2,4]triazolo[1,5-c]quinazolin-5-yl]amino}-1-(morpholin-4-yl)propan-1-one]	–
